Measured values from article PMC7450046, “Making of water soluble curcumin to potentiate conventional antimicrobials by inducing apoptosis-like phenomena among drug-resistant bacteria” (Scientific Reports, 2020).
≈ marks a conversion by molar mass, not a printed value. Like-named read-outs stand apart in the source and are kept apart here.

Legend:
[1] = tested on: Gram-positive and Gram-negative MDR isolates; test: MIC, broth micro-dilution, summary for MDR isolates; format: cell-based
Experimental: (§1) The minimum inhibitory concentration of sCur was determined by the broth microdilution method as described earlier with minor modifications.
(§2) Briefly, Staphylococcus aureus, Staphylococcus epidermidis, Klebsiella pneumoniae, Escherichia coli, and Pseudomonas aeruginosa were grown in 10 ml BHI broth aerobically for 18 h. Bacterial culture (500 µl) was then diluted to 1.5 ml fresh BHI broth. […] The stock was diluted in a series of two-fold dilutions ranging from 0.5 to 512 µg/ml in sterile BHI broth in microtiter wells. Each well of the 96-well microtiter plate was then inoculated with 190 µl of standardized cell suspension (10^5 CFU/ml) and incubated at 37 °C for next 18 h along with the 20 µl sCur suspension. The MIC was defined as the lowest concentration of sCur at which no obvious growth was observed.

[2] = tested on: Escherichia coli (ATCC25922); test: MIC/MBC, broth micro-dilution; format: cell-based; conditions: for MIC: ATCC25922, 18 h
Experimental: as §1
(§3) Briefly, Staphylococcus aureus, Staphylococcus epidermidis, Klebsiella pneumoniae, Escherichia coli, and Pseudomonas aeruginosa were grown in 10 ml BHI broth aerobically for 18 h. Bacterial culture (500 µl) was then diluted to 1.5 ml fresh BHI broth. The sCur stock solution (1,024 µg/ml) was used for the study. The stock was diluted in a series of two-fold dilutions ranging from 0.5 to 512 µg/ml in sterile BHI broth in microtiter wells. Each well of the 96-well microtiter plate was then inoculated with 190 µl of standardized cell suspension (10^5 CFU/ml) and incubated at 37 °C for next 18 h along with the 20 µl sCur suspension. The MIC was defined as the lowest concentration of sCur at which no obvious growth was observed. Positive controls were having either ciprofloxacin or meropenem (for gram positive and gram negative respectively) while the sterile broth served as negative control and all the experiments were performed in triplicate.

[3] = tested on: Klebsiella pneumoniae (ATCC700603); test: MIC/MBC, broth micro-dilution; format: cell-based; conditions: for MIC: ATCC700603, 18 h
Experimental: as §1, §3

[4] = tested on: Staphylococcus epidermidis (ATCC35984); test: MIC/MBC, broth micro-dilution; format: cell-based; conditions: for MIC: ATCC35984, 18 h
Experimental: as §1, §3

[5] = tested on: Staphylococcus aureus (ATCC29213); test: MIC/MBC, broth micro-dilution; format: cell-based; conditions: for MIC: ATCC29213, 18 h
Experimental: as §1, §3

[6] = tested on: Pseudomonas aeruginosa (ATCC25619); test: MIC/MBC, broth micro-dilution; format: cell-based; conditions: for MIC: ATCC25619, 18 h
Experimental: as §1, §3

[7] = tested on: Pseudomonas aeruginosa (2,412/2019); test: MIC/MBC, broth micro-dilution; format: cell-based; conditions: for MIC: 18 h
Experimental: as §1, §2

[8] = tested on: Klebsiella pneumoniae (10,825/2019); test: MIC/MBC, broth micro-dilution; format: cell-based; conditions: for MIC: 18 h
Experimental: as §1, §2

[9] = tested on: Staphylococcus aureus (MRSA, 2,862/2019); test: MIC/MBC, broth micro-dilution; format: cell-based; conditions: for MIC: 18 h
Experimental: as §1, §2

[10] = tested on: Escherichia coli (507/2019); test: MIC/MBC, broth micro-dilution; format: cell-based; conditions: for MIC: 18 h
Experimental: as §1, §2

Klebsiella pneumoniae [11] = test: DPH flow cytometry, membrane dynamics; format: cell-based; conditions: 256 µg/ml
Klebsiella pneumoniae [12] = test: DiSC3-5 flow cytometry, membrane depolarization; conditions: 256 µg/ml
Experimental: (§6) The membrane potential-sensitive dye DiSC3-5 was used to measure plasma membrane depolarization in bacterial membranes as described earlier with modifications[44]. The isolates were cultured in BHI broth overnight with subsequent dilution to adjust the absorbance to 0.05 at λmax 600. […] This was further incubated for 20 min with 1 µM DiSC3-5. Negative control was without any drug while native curcumin treated bacterial lane served as positive control. The fluorescence was measured employing Synergy H1 Hybrid Multi-Mode Reader with excitation at 622 nm and emission at 670 nm. Besides, the percentages of bacterial cells showing fluorescence were measured using the flow cytometry (C6 BD Accuri, Becton–Dickinson, San Jose, CA, USA).

[13] = tested on: Pseudomonas aeruginosa (2,412/2019); test: Modified MIC in combination, checkerboard titration; format: cell-based
Experimental: (§4) Serial dilutions of with these antibiotics were mixed in cation-adjusted Muller Hinton broth. The inoculum was prepared from the overnight grown colonies on MHA. The final bacterial concentration after inoculation was […].

[14] = tested on: Klebsiella pneumoniae (10,825/2019); test: as above; format: cell-based
Experimental: as §4

[15] = tested on: Escherichia coli (507/2019); test: as above; format: cell-based
Experimental: as §4

Klebsiella pneumoniae [16] = test: DCFH-DA flow cytometry, ROS production; format: cell-based; conditions: single agents, time not stated; untreated 0.1%
MRSA clinical isolate = test: DPH steady-state fluorimetry, membrane dynamics; format: cell-based, Staphylococcus aureus; conditions: vancomycin alone; 8 µg/ml sCur with 16 µg/ml vancomycin 60 min; untreated 89.86 ± 2.07
Experimental: (§5) We utilized the previously described method. Multidrug-resistant clinical isolates of Staphylococcus aureus, Staphylococcus epidermidis, Klebsiella pneumoniae, Escherichia coli, and Pseudomonas aeruginosa were treated with MIC concentration of sCur, vancomycin, and in combination (here data of only Klebsiella pneumoniae is shown). We incubated the treated cells for 120 min with shaking (100 rpm) at 37 °C, with subsequent harvesting. The pellet was re-suspended and re-pelleted. We fixed the pellet with 0.4% paraformaldehyde with subsequent resuspension in PBS. We later on incubated the re-suspended cells with 0.5 mM 1, 6-diphenyl-1, 3, 5-hexatriene (DPH) at 37 °C for 60 min, pelleted and washed thrice with PBS. The fluorescence intensity was monitored spectrophotometrically employing Synergy H1 Hybrid Multi-Mode Reader at 350 nm (excitation) and 425 nm (emission).

[17] = tested on: S. aureus and K. pneumoniae cells; test: Hydroxyl radical estimation with HPF dye; format: cell-based, Staphylococcus aureus and Klebsiella pneumoniae; conditions: one hour treatment, compared to untreated cells
Experimental: The fluorescent reporter dye 3′-(p-hydroxyphenyl) fluorescein (HPF) was used for […] free radical detection as described previously. Overnight cultures were diluted 1:250 with 25 ml of BHI broth in 250 ml flasks and incubated at 37 °C, with shaking (200 rpm). Cells were grown until they reached the OD600 ~ 0.3. Five hundred microliters sample was taken from the flasks and transferred to an 8-well plate for treatments. […] The supernatant was exchanged with phosphate buffered saline supplemented with […] HPF with incubation in the dark at room temperature for 15 min and re-pelleted by centrifugation at 10,000 rpm. The supernatant was removed and replaced with 1 × PBS for fluorimetry measurements.

[18] = tested on: K. pneumoniae clinical isolate; test: DPH steady-state fluorimetry, membrane dynamics; format: cell-based, Klebsiella pneumoniae; conditions: vancomycin alone; sCur at MIC alone 120 min; 8 µg/ml sCur with 16 µg/ml vancomycin 60 min; untreated 93.44 ± 2.646
Experimental: as §5

[19] = tested on: Staphylococcus aureus (MRSA, 2,862/2019); test: microbe, parasite or virus in culture
Experimental: as §4

[20] = tested on: multi-drug resistant K. pneumoniae and S. aureus isolates; test: DiSC3-5 steady-state fluorimetry, membrane depolarization; format: cell-based, Klebsiella pneumoniae and Staphylococcus aureus; conditions: 8 µg/ml sCur with 16 µg/ml vancomycin, 120 min; vancomycin alone; untreated 18.67 ± 2.082
Experimental: as §6

[21] = antibiotic with native curcumin (8 µg/ml)

O=C(O)c1cn(C2CC2)c2cc(N3CCNCC3)c(F)cc2c1=O [Ciprofloxacin, ciprofloxacin]
MIC ([1]; MDR isolates, antibiotics alone, read-out: MIC): 64 µg/mL (≈ 193 µM)
MIC ([2]; read-out: MIC): 0.25 µg/mL (≈ 0.754 µM)
MBC ([2]; ATCC25922, read-out: MBC): 0.5 µg/mL (≈ 1.51 µM)
MIC ([3]; read-out: MIC): 0.5 µg/mL (≈ 1.51 µM)
MBC ([3]; ATCC700603, read-out: MBC): 1 µg/mL (≈ 3.02 µM)
MIC ([4]; read-out: MIC): < 0.25 µg/mL
MBC ([4]; ATCC35984, read-out: MBC): 0.5 µg/mL (≈ 1.51 µM)
MIC ([5]; read-out: MIC): 0.25 µg/mL (≈ 0.754 µM)
MBC ([5]; ATCC29213, read-out: MBC): 0.5 µg/mL (≈ 1.51 µM)
MIC ([6]; read-out: MIC): 0.5 µg/mL (≈ 1.51 µM)
MBC ([6]; ATCC25619, read-out: MBC): 1 µg/mL (≈ 3.02 µM)
MBC ([7]; read-out: MBC): 256 µg/mL (≈ 773 µM)
MBC ([8]; read-out: MBC): 128 µg/mL (≈ 386 µM)
MBC ([9]; read-out: MBC): 64 µg/mL (≈ 193 µM)
MBC ([10]; read-out: MBC): 64 µg/mL (≈ 193 µM)

COc1cc(/C=C/C(=O)CC(=O)/C=C/c2ccc(O)c(OC)c2)ccc1O [Curcumin, curcumin]
MIC ([2]; read-out: MIC): 256 µg/mL (≈ 695 µM)
MBC ([2]; ATCC25922, read-out: MBC): ≥ 1020 µg/mL
MIC ([3]; read-out: MIC): 256 µg/mL (≈ 695 µM)
MBC ([3]; ATCC700603, read-out: MBC): ≥ 1020 µg/mL
MIC ([4]; read-out: MIC): 128 µg/mL (≈ 347 µM)
MBC ([4]; ATCC35984, read-out: MBC): ≥ 1020 µg/mL
MIC ([5]; read-out: MIC): 128 µg/mL (≈ 347 µM)
MBC ([5]; ATCC29213, read-out: MBC): ≥ 1020 µg/mL
MIC ([6]; read-out: MIC): 512 µg/mL (≈ 1390 µM)
MBC ([6]; ATCC25619, read-out: MBC): ≥ 1020 µg/mL
right shifting of the population, DPH (Klebsiella pneumoniae [11]): significant right shifting
MIC ([7]; read-out: MIC): ≥ 1020 µg/mL
MBC ([7]; read-out: MBC): ≥ 1020 µg/mL
MIC ([8]; read-out: MIC): 512 µg/mL (≈ 1390 µM)
MBC ([8]; read-out: MBC): ≥ 1020 µg/mL
MIC ([9]; read-out: MIC): 256 µg/mL (≈ 695 µM)
MBC ([9]; read-out: MBC): ≥ 1020 µg/mL
MIC ([10]; read-out: MIC): 512 µg/mL (≈ 1390 µM)
MBC ([10]; read-out: MBC): ≥ 1020 µg/mL
right shifting of the population, DiSC3-5 (Klebsiella pneumoniae [12]): 35%

C[C@@H](O)[C@H]1C(=O)N2C(C(=O)O)=C(S[C@@H]3CN[C@H](C(=O)N(C)C)C3)[C@H](C)[C@H]12 [Meropenem, meropenem]
MIC ([2]; read-out: MIC): 0.25 µg/mL (≈ 0.652 µM)
MBC ([2]; ATCC25922, read-out: MBC): 1 µg/mL (≈ 2.61 µM)
MIC ([3]; read-out: MIC): 0.5 µg/mL (≈ 1.3 µM)
MBC ([3]; ATCC700603, read-out: MBC): 1 µg/mL (≈ 2.61 µM)
MIC ([6]; read-out: MIC): 0.5 µg/mL (≈ 1.3 µM)
MBC ([6]; ATCC25619, read-out: MBC): 1 µg/mL (≈ 2.61 µM)
modified MIC ([13]; antibiotic with sCur (8 µg/ml)): 4 µg/mL
modified MIC ([14]; antibiotic with sCur (8 µg/ml)): 2 µg/mL
modified MIC [15, 21]: 64 µg/mL
modified MIC ([15]; antibiotic with sCur (8 µg/ml)): 1 µg/mL
MBC ([7]; read-out: MBC): 256 µg/mL (≈ 668 µM)
MBC ([8]; read-out: MBC): 256 µg/mL (≈ 668 µM)
MIC ([10]; read-out: MIC): 64 µg/mL (≈ 167 µM)

CN[C@H](CC(C)C)C(=O)N[C@H]1C(=O)N[C@@H](CC(N)=O)C(=O)N[C@H]2C(=O)N[C@H]3C(=O)N[C@H](C(=O)N[C@H](C(=O)O)c4cc(O)cc(O)c4-c4cc3ccc4O)[C@H](O)c3ccc(c(Cl)c3)Oc3cc2cc(c3O[C@@H]2O[C@H](CO)[C@@H](O)[C@H](O)[C@H]2O[C@H]2C[C@](C)(N)[C@H](O)[C@H](C)O2)Oc2ccc(cc2Cl)[C@H]1O [Vancomycin, vancomycin]
cell population that took up DCFDA, ROS generation (gate M3) (Klebsiella pneumoniae [16]): 38.6%
MIC [1]: 512 µg/mL (≈ 353 µM)
DPH fluorescence intensity (MRSA clinical isolate): 84.24 ± 1.875 a.u.
MBC ([2]; ATCC25922): ≥ 1020 µg/mL
MIC [2]: 256 µg/mL (≈ 177 µM)
MBC ([3]; ATCC700603): ≥ 1020 µg/mL
MIC [3]: 256 µg/mL (≈ 177 µM)
MBC ([4]; ATCC35984): 1 µg/mL (≈ 0.69 µM)
MIC [4]: 0.25 µg/mL (≈ 0.173 µM)
MBC ([5]; ATCC29213): 2 µg/mL (≈ 1.38 µM)
MIC [5]: 0.5 µg/mL (≈ 0.345 µM)
MBC ([6]; ATCC25619): ≥ 1020 µg/mL
MIC [6]: 1020 µg/mL (≈ 707 µM)
HPF fluorescence, OH radical production [17]: fair increase in the fluorescence
modified MIC [13, 21]: 1024 µg/mL
modified MIC ([13]; antibiotic with sCur (8 µg/ml)): 16 µg/mL
modified MIC [14, 21]: 512 µg/mL
modified MIC ([14]; antibiotic with sCur (8 µg/ml)): 16 µg/mL
modified MIC [15, 21]: 512 µg/mL
modified MIC ([15]; antibiotic with sCur (8 µg/ml)): 8 µg/mL
DPH fluorescence intensity [18]: 89.21 ± 2.614 a.u.
right shifting of the population, DPH (Klebsiella pneumoniae [11]): mild right shifting
MBC [7]: ≥ 1020 µg/mL
MIC [7]: 1020 µg/mL (≈ 707 µM)
MBC [8]: ≥ 1020 µg/mL
MIC [8]: 512 µg/mL (≈ 353 µM)
MBC [9]: 2 µg/mL (≈ 1.38 µM)
MIC [9]: 1 µg/mL (≈ 0.69 µM)
MBC [10]: ≥ 1020 µg/mL
MIC [10]: 512 µg/mL (≈ 353 µM)
MIC ([19]; read-out: Modified MIC): 1 µg/mL (≈ 0.69 µM)
MIC ([19]; read-out: modified MIC): 0.25 µg/mL (≈ 0.173 µM)
right shifting of the population, DiSC3-5 (Klebsiella pneumoniae [12]): 0.6%
DiSC3-5 fluorescence intensity [20]: 32.07 ± 5.224 a.u.
